Here are results for four compounds from patent US12486218B2, “Compounds advantageous in the treatment of central nervous system diseases and disorders” (AurimMed Pharma, Inc., priority 2008, dated 2025).

The test system of one data set is sodium channels. The following applies: by way of comparison; cited from earlier work.
In data set [1] the test system is mice. The conditions noted are these: mouse, in vivo, ip, 100 mg/kg.
Protocol: (§1) The animal testing was performed according to methods known in the relevant art.
For a further data set, the system named is SMN2 promoter. As to the kind of experiment: SMN2 promoter β-lactamase reporter assay in NSC34 motor neuron-like cells. The class given is cell-based. How it is done:
FIG. 30 illustrates a screen for SMN2 expression of a number of compounds described herein.
SMN2 promoter activity was measured using NSC34 motor neuron-like cells stably transfected with a β-lactamase (BLA) reporter gene under the control of a 3.4-kilobase fragment of the SMN2 promoter. D156844 was used as a positive control for this assay.

Data set [2] concerns mice. Description: Maximal Electroshock Seizure (MES) test, mice i.p. The conditions noted are these: for ED50: Mus musculus. The class given is in vivo.
Data set [3] deals with mice. As to the kind of experiment: Subcutaneous Metrazol Seizure threshold (s.c. MET) test, mice i.p. It counts as in vivo. The conditions noted are these: for ED50: Mus musculus.
Data set [4] has as its system rats. Description: Pilocarpine-induced Status Epilepticus in Rats (prevention; intervention @ 30 min). The conditions noted are these: Rattus norvegicus.
Protocol: The animal testing was performed using the protocols developed in the Anticonvulsant Screening Program (ASP) at the National Institute of Neurological Disorders and Stroke (NINDS), National Institutes of Health (NIH).
The subject of data set [5] is rats. Description: s.c. MET test, rats p.o. It counts as in vivo.
In data set [6] the test system is mice. As to the kind of experiment: Minimal motor impairment (MID50), mice i.p. The following applies: for MID50 (median minimal motor impairment dose): mice, i.p.
Protocol: as §1
Data set [7] deals with rats. Description: Sciatic nerve ligation model in rats. The class given is in vivo. The conditions noted are these: 100 mg/kg. The procedure: [The response (threshold for foot withdrawal) was measured in grams.]
The test system of data set [8] is rats. As to the kind of experiment: Hippocampal Kindled Rats model. The class given is in vivo.
Data set [9] deals with rats. Description: MES test, rats p.o. It counts as in vivo.
In data set [10] the test system is type II SMA fibroblasts (GM03813). Description: SMN protein localization, gem counting in type II SMA fibroblasts. The conditions noted are these: 100 nM-10 μM, 5 days. The class given is cell-based. How it is done: To validate the SMN2 promoter and exon 7 screens, the effects of compounds H, H (acid form), AY, F, BX, and BY were evaluated on the basis of expression and localization of SMN protein in type II SMA fibroblasts (GM03813). In a normal cell, SMN protein localized within the nucleus to discreet foci known as gems. In SMN-deficient SMA cells, the number of gems is greatly diminished. Although the function of gems is unknown, it is believed that they are somehow involved in the snRNP assembly function of SMN. Gem counting can, therefore, be considered an assay for SMN function.
GM03813 fibroblasts were treated with different doses (100 nM-10 μM) of compounds H, H (acid form), AY, F, BX, and BY for 5 days. SMN immunostaining was then completed on these cells and the number of gems was counted in 100 randomly-selected nuclei. […] In fact, the gem counts at the highest dose of compound H approach those observed for carrier fibroblasts (GM03814). When compared against treatment with 1 μM D157495—a D156844 derivative, all of the compounds tested performed as well as or, even better than D157495.

The next data set can be described thus: in vivo. The conditions noted are these: mouse, ip.
Data set [11] deals with rat dopaminergic N27 cells. As to the kind of experiment: N27 protection assay against oxidative stress (H2O2 or MPP+; MTT and LDH). The class given is cell-based. The conditions noted are these: drug 24 hours before 200 μM H2O2 or 640 μM MPP+. The method, boiled down: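 Protection mode: N27 cells pretreated with drug at various concentrations for 24 hours, then exposed to 200 μM H2O2 or 640 μM MPP+. Recovery mode: cells damaged by H2O2 first, drug applied afterwards. Viability measured by MTT reduction and cytotoxicity by released LDH.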

The subject of another data set is C3A hepatocyte cells. As to the kind of experiment: ACTIVTox LDH release assay. The class given is cell-based. The procedure:
Compounds A, I, H, and F were tested by Stem Cell Innovations, Inc. (Houston, TX) in their ACTIVTox® Human Liver Cell-based assays (using C3A hepatocyte cells). Specifically, the compounds were tested in the LDH release assay, which determines the release of Lactate DeHydrogenase (an indicator of cell death) at various concentrations of test compound.
A concentration of 100 µM of test compound is a much higher level of exposure to liver cells than would ever be expected under physiological conditions. Therefore, using 100 μM as a standard test concentration (for comparative purposes), the ratio of the absorbance (which measures the level of LDH release) resulting from the presence of the test compound versus the negative control is a value known as the “average (or mean) fold control” (Average Fold Control=Average of Absorbance/Average of Negative Control).

For data set [12], the system named is mice. Description: Audiogenic Seizure susceptible (AGS) test, mice i.p. It counts as in vivo. The conditions noted are these: Mus musculus, ip.
Data set [13] has as its system mice. As to the kind of experiment: 6 Hz (minimal clonic seizure) model, mice i.p. The conditions noted are these: Mus musculus, ip. It counts as in vivo.
The test system of data set [14] is mice. Description: Corneal kindled mouse model. It counts as in vivo. The conditions noted are these: for ED50: Mus musculus.
Data set [15] relates to rats. Description: Minimal motor impairment (MID50), rats p.o. It counts as in vivo.
The mark [16] stands for this setting: read-out: Prevention, Protection.

“And” between values parts separate entries of the source, which are not always exact repeats. Equal values may be shown once. Read-outs that look alike come from different tables or passages of the source. Bounds are passed on as bounds.

Protocol for in vivo: as §1

On to `Nc1nnc(-c2cccc(Cl)c2Cl)c(N)n1` [lamotrigine], for which the “% of control inhibited, sodium currents, typical sodium-channel-blocking drugs” value with sodium channels is given as “about 50%”.
As for `NC(=O)CC1(c2cccc(Cl)c2)CCCC1` [CX], the “MID50, fraction of animals” value with mice [1] is on record as 8/8 @ 0.25 hrs. Also, in the data set on SMN2 promoter, the “Promoter (SMN2 promoter test, summary YES/NO)” value is recorded as “YES” and the SMN2 promoter activity result is recorded as “increased SMN2 promoter activity”. For the same compound, the “MES, fraction of animals” value in the data set on mice [2] (mouse, in vivo, ip, 100 mg/kg) was 4/4 @ and 3/4, 2/4 @. In addition, the “s.c. MET, fraction of animals” value with mice [3] (mouse, in vivo, 100 mg/kg) was 2/4 @ 0.25 hrs.
On to `CC(CC(N)=O)c1cccc(C(F)(F)F)c1` (centres unmarked) [Compound G, 3-[3-(trifluoromethyl)-phenyl]butyramide], for which the responders at 200 mg/kg is 88% in the data set with rats [4] (0.5 h, read-out: Intervention @ 30 min, Protection) and 100% in the data set on rats [4] (setting [16]). Also, the “activity in the s.c. MET test” value with rats [5] (at 30 mg/kg) is “activity”. Besides, in the data set on mice [6] (mice i.p., 100 mg/kg @ 0.5 hr), the “MID50, fraction of animals” value was 7/8 @0.5 hr. Besides, the “MID50 (median minimal motor impairment dose)” value with mice [6] was less than 100 mg/kg. Further, the allodynic threshold is 275 % of the control with rats [7] (1 hour post-administration), 219 % of the control in the data set with rats [7] (2 hours post-administration) and 175 % of the control in the data set with rats [7] (4 hours post-administration). The ED50 with mice [2] (ip, mice) is less than 100 mg/kg; in the data set on mice [3] (mice, i.p.), not above 100 mg/kg. In addition, the “MES, fraction of animals” value in the data set with mice [2] (mice i.p., 100 mg/kg @ 0.5 hr) is 3/3 @0.5; with mice [2] (mice i.p., 100 mg/kg @ 4.0 hr), “hr, 1/3 @”. Moreover, in the data set with mice [3] (mice i.p., 100 mg/kg @ 0.5 hr), the “s.c. MET, fraction of animals” value is 1/1 @0.5. Besides, the “seizure score, Hippocampal Kindled Rats model” value with rats [8] (rats, at 100 mg/kg) is “significantly lowering the seizure score”. For the same compound, the “activity in the MES test” value with rats [9] (at 30 mg/kg) is on record as “activity”.
`CC(CC(N)=O)c1ccc(C(F)(F)F)cc1` (centres unmarked) [F, 3-[4-(trifluoromethyl)-phenyl]butyramide]: the “gem counts (SMN immunostaining, 100 nuclei)” value in data set [10] was “increase gem counts in a dose-dependent manner”. Also, the responders at 65 mg/kg with rats [4] (setting [16]) was 14%. Besides, the ED50 is more than 250 mg/kg in the data set with rats [5] (Rattus norvegicus, p.o.); 85.3 mg/kg in the data set on mice [2] (ip, mice); 85.3 mg/kg with mice [2] (ip, mice i.p., @ 2.0 hrs); 85.5 mg/kg in the data set with mice [3] (mice i.p., @ 1.0 hr); 85.5 mg/kg in the data set on mice [3] (mice, i.p.); 29 mg/kg with rats [8] (Rattus norvegicus). For the same compound, the ED50 amounted to 26.4 mg/kg in the data set with rats [9] (Rattus norvegicus, po); 41.3 mg/kg with mice [12] (mice); 41.3 mg/kg in the data set on mice [12] (mice i.p., @ 2.0 hrs); 80.8 mg/kg in the data set on mice [13] (mice i.p., @ 0.5 hrs, read-out: 6 Hz (32 mA) ED50); 80.8 mg/kg in the data set on mice [13] (mice, i.p., read-out: 6 Hz ED50); 60.6 mg/kg in the data set on mice [14] (ip, mice i.p., @1.0 hrs, read-out: Corneal Kindled ED50). The ED50 in the data set on mice [14] (read-out: ED50, corneal kindled mouse model) amounted to 60.6 mg/kg. For the same compound, in the data set on mice [6] (mice i.p., @ 0.25 hr), the “MID50 (TD50)” value amounted to 208.37. Further, the “MID50 (median minimal motor impairment dose)” value in the data set on mice [6] is given as 208.37 mg/kg. This compound displayed a TD50 in the data set “in vivo” of more than 200 mg/kg. In addition, in [11], the “neuroprotective effect against H2O2 and MPP+ oxidative stresses (MTT and LDH assays)” value is “statistically significant, dose-dependent neuroprotection”. Besides, in the data set on C3A hepatocyte cells (at 100 μM, C3A hepatocyte cells, value below 1.75 = no cyto- or hepatotoxic activity), the “LDH release, mean fold control” value worked out at 1.47. For the same compound, in the data set on C3A hepatocyte cells (at physiologically relevant concentrations (i.e., <100 µM)), the “cyto- or hepatotoxicity, ACTIVTox data” value is listed as “not cyto- or hepatotoxic”. For the same compound, the “seizure score, corneal kindled mouse model” value in the data set on mice [14] (at 100 mg/kg) is recorded as “zero”. Moreover, in the data set on rats [15], the MID50 is reported as >500 (none observed) mg/kg.
